Reference: patent US20090182055A1, “FUNGICIDAL AGENT CONTAINING N-CHLOROTAURINE AND USE THEREOF” (priority 2000, published 2009)

Legend:
[1] = treatment of patients with otitis externa with saturated strips; assay type: in vivo, human; conditions: changed daily
Protocol: A group of 10 patients who suffered from otitis externa with affliction of the auditory canal were treated. For treatment, 12 cm long strips (tampons by Rauscher) were placed into the external auditory canal. The test group (5 persons) was treated with strips which were saturated with 1-ml 1% NCT-Na, the control group (5 persons) with strips which were saturated with 1-ml otosporin (content per ml: 10,000 IU polymyxin B sulfate, 3.5 mg neomycin as neomycin sulfate, 10 mg hydrocortisone).
The treatment was done over 5 days. The strips were changed daily.

[2] = treatment of patients with ulcus cruris with saturated swabs; assay type: in vivo, human; conditions: Example 4, 1% NCT-Na versus 1% chloramine T control group
Protocol: A group of 25 patients who suffered from ulcus cruris were treated. The treatment was done with swabs which were saturated with an aqueous solution of 1% NCT-Na (test group, 14 patients) or 1% chloramine T (control group, 11 patients) and applied directly to the ulcers and left there. The treatment was done over 5-14 days. The swabs were changed twice daily.

[3] = treatment of rhinosinusitis patients by nasal catheter rinsing; assay type: in vivo, human
From the text: Treatments with traditional fungicidal agents have on the contrary previously led to no success.
The importance of the agent lies, among other things, in the fact that, in the case of the mucus tissue polyps occurring in rhinosinusitis, regression could be observed so that the previously successful standard therapy, namely operative removal, can be avoided by the use of the agent according to the invention.
A person suffers from chronic rhinosinusitis with clear swelling of the mucus membranes in both maxillary sinuses with retention of secretion on the left, in ethmoid bone cells, sphenoidal sinus, and in the left frontal sinus. Labored nasal respiration. For 2 1/2 months increasing headaches at the back of the head, no improvement on antibiotic therapy.
The treatment with 1% NCT-Na took place over a total of 4 weeks, 3 times weekly, and included 12 treatments in all. Each time a 10-ml NCT-Na solution was applied by means of a nasal catheter (YAMIK) over a period of time of 12 minutes. Thereafter the rinsing solution was suctioned off.
patient suffered from chronic rhinosinusitis for ca. 1 year with swelling of the mucus membranes and increased secretion in the nasal cavity and all its adjacent cavities, strong polyposis and loss of the sense of smell.

[4] = tolerability in vivo at various application sites; conditions: eye, middle ear, outer ear, skin ulcers, oral cavity, bladder
[5] = system: aspergillus, penicillum, fusarium, and candida in nasal mucus; test: kill-off time in vitro of fungi in nasal mucus; assay type: cell-based; conditions: 1% NCT-Na added to nasal mucus (diluted 1:10) of rhinosinusitis
Protocol: In the case of rhinosinusitis various species of fungus were found in the nasal mucus, e.g., aspergillus, penicillum, fusarium, and candida. If (diluted 1:10) 1% NCT-Na is added to this nasal mucus, then the kill-off time in vitro is less than 30 minutes.

## O=S(=O)(O)CCNCl [NCT-Na, N-chlorotaurine]
[1]; Example 3, strips saturated with 1 ml 1% NCT-Na in external auditory canal, 5 days
  tolerability: well tolerated
[1]; Example 3, strips saturated with 1 ml test solution
  period until healing, on average: 3 days
[2]
  pains after application of the solution: significantly less pains
[3]; Example 1, 1% NCT-Na, after 7 treatments
  formation of secretion: strong decline
[3]; Example 1, 1% NCT-Na, after 9 treatments
  nasal respiration: clearly improved
[3]; Example 1, person, 1% NCT-Na 10 ml, 3 times weekly, after the second application
  pains: complete remission of the pains
[3]; Example 2, 1% NCT-Na, at the end of the treatments (12 treatments, 4 weeks)
  polyposis nasi: unambiguous regression
[3]; Example 2, patient, 1% NCT-Na 10 ml, 3 times weekly, after the sixth application
  sense of smell: substantial restoration
[3]; trials with rhinosinusitis patients, treatment of internal nasal surfaces with NCT-Na solution
  symptoms of rhinosinusitis (pains, head pressure, loss of sense of smell, increased secretion, polyp formation): improved substantially
[4]
  tolerability in vivo: tolerated outstandingly
[5]
  kill-off time in vitro: less than 30 minutes
